Values after ≈ are worked out from the molar mass of the structure shown. Like-named read-outs stand apart in the source and are kept apart here.
System: C. difficile ATCC 43255
Experiment: Determination of minimal-inhibitory concentrations (microdilution), C. difficile ATCC 43255
Assay type: cell-based, Clostridioides difficile
Conditions: for MIC: Clostridioides difficile
[1] = ATCC43255, 24 h, C. difficile ATCC 43255, 24 h, read-out: MIC (μg/mL) 24 h
[2] = ATCC43255, 48 h, C. difficile ATCC 43255, 48-h incubation, read-out: MIC (μg/mL) 48 h
[3] = C. difficile ATCC 43255, 48-h incubation

Compound	MIC [1]	MIC [2]	further results
FC(F)(F)c1ccc(Oc2ccc(-c3noc(-c4cc5ccccc5[nH]4)n3)cc2)cc1 [Compound 48, 5-(1H-Indol-2-yl)-3-(4-(4-(trifluoromethyl)phenoxy)phenyl)-1,2,4-oxadiazole]	> 128 µg/mL	> 128 µg/mL	
O=[N+]([O-])c1ccc(-c2nc(-c3ccc(OC4CCCC4)cc3)no2)cc1 [Compound 50, 3-(4-(Cyclopentyloxy)phenyl)-5-(4-nitrophenyl)-1,2,4-oxadiazole]	> 128 µg/mL		MIC (μg/mL) 48 h [3]: >128 µg/mL
c1cc2cc(-c3nc(-c4ccc(OC5CCCC5)cc4)no3)ccc2[nH]1 [Compound 56, 3-(4-(Cyclopentyloxy)phenyl)-5-(1H-indol-5-yl)-1,2,4-oxadiazole]	> 128 µg/mL	> 128 µg/mL	MIC (μg/mL) 48 h [3]: >128 µg/mL
O=[N+]([O-])c1cn(CCO)c(-c2nc(-c3ccc(OC4CCCC4)cc3)no2)n1 [Compound 58, 3-(4-(Cyclopentyloxy)phenyl)-5-(1-(2-hydroxyethyl)-4-nitro-1H-imidazol-2-yl)-1,2,4-oxadiazole]	> 128 µg/mL	> 128 µg/mL	antibacterial activity against C. difficile (in words) (C. difficile ATCC43255): lost activity
C[C@@H](NC(=O)OC(C)(C)C)c1nc(-c2ccc(OC3CCCC3)cc2)no1 [Compound 60, tert-Butyl (R)-(1-(3-(4-(cyclopentyloxy)phenyl)-1,2,4-oxadiazol-5-yl)ethyl) carbamate]			MIC (μg/mL) 48 h [3]: >128 µg/mL; MIC (μg/mL) 24 h (C. difficile ATCC 43255, 24 h): >128 µg/mL
C[C@@H](N)c1nc(-c2ccc(OC3CCCC3)cc2)no1 [Compound 61, (R)-1-(3-(4-(Cyclopentyloxy)phenyl)-1,2,4-oxadiazol-5-yl) ethan-1-amine]	> 128 µg/mL	> 128 µg/mL	
C[C@@H](NC(=O)OC(C)(C)C)C(=O)N[C@H](C)c1nc(-c2ccc(OC3CCCC3)cc2)no1 [Compound 62, 5-((R)-1-((R)-2-(Boc-amino)propanamido)ethyl)-3-(4-(cyclopentyloxy)phenyl)-1,2,4-oxadiazole]	> 128 µg/mL	> 128 µg/mL	
Oc1cccc(/C=C/c2nc(-c3ccc(OC4CCCC4)cc3)no2)c1 [Compound 65, 3-(4-(Cyclopentyloxy)phenyl)-(E)-5-(3-hydroxystyryl)-1,2,4-oxadiazole]	> 128 µg/mL	> 128 µg/mL	
Nc1nc(-c2ccc(OC3CCCC3)cc2)no1 [Compound 68, 3-(4-(Cyclopentyloxy)phenyl)-1,2,4-oxadiazol-5-amine]	> 128 µg/mL	> 128 µg/mL	
Clc1nc(-c2ccc(OC3CCCC3)cc2)no1 [Compound 70, 5-Chloro-3-(4-(cyclopentyloxy)phenyl)-1,2,4-oxadiazole]	> 128 µg/mL	> 128 µg/mL	
Oc1ccc(-c2nc(-c3ccc(OC4CCCC=C4Br)cc3)no2)cc1 (stereo not shown) [Compound 78, 4-(3-(4-((2-Bromocyclohex-2-en-1-yl)oxy)phenyl)-1,2,4-oxadiazol-5-yl)phenol]			MIC (μg/mL) 48 h [3]: >128 µg/mL; MIC (ATCC43255, 24 h, read-out: MIC (μg/mL) 24 h): > 128 µg/mL; MIC (ATCC43255, 48 h, read-out: MIC (μg/mL) 48 h): > 128 µg/mL
Oc1ccc(-c2nc(-c3ccc(Oc4ccccc4)c(Br)c3)no2)cc1 [Compound 79, 4-(3-(3-Bromo-4-phenoxyphenyl)-1,2,4-oxadiazol-5-yl)phenol]	> 128 µg/mL		MIC (μg/mL) 48 h [3]: >128 µg/mL
C#CCCOc1ccc(-c2noc(-c3ccc(O)cc3)n2)cc1 [Compound 89, 4-(3-(4-(But-3-yn-1-yloxy)phenyl)-1,2,4-oxadiazol-5-yl)phenol]	> 128 µg/mL	> 128 µg/mL	
Fc1ccc2oc3ccc(-c4noc(-c5ccc6[nH]ccc6c5)n4)cc3c2c1 [Compound 121, 3-(8-Fluorodibenzo[b,d]furan-2-yl)-5-(1H-indol-5-yl)-1,2,4-oxadiazole]	> 128 µg/mL	> 128 µg/mL	
Fc1ccccc1-c1noc(-c2ccc3[nH]ccc3c2)n1 [Compound 125, 3-(2-Fluorophenyl)-5-(1H-indol-5-yl)-1,2,4-oxadiazole]	> 128 µg/mL	> 128 µg/mL	
O=[N+]([O-])c1ccc(-c2noc(-c3ccc4[nH]ccc4c3)n2)cc1 [Compound 126, 5-(1H-Indol-5-yl)-3-(4-nitrophenyl)-1,2,4-oxadiazole]	> 128 µg/mL	> 128 µg/mL	
c1cc2cc(-c3nc(-c4ccc5c(c4)CCN5)no3)ccc2[nH]1 [Compound 129, 5-(1H-Indol-5-yl)-3-(indolin-5-yl)-1,2,4-oxadiazole]	> 128 µg/mL	> 128 µg/mL	
CN1CCC(Oc2ccc(-c3noc(-c4ncc([N+](=O)[O-])[nH]4)n3)cc2)C1.Cl (stereo not shown) [Compound 132, 3-(4-((1-Methylpyrrolidin-3-yl)oxy)phenyl)-5-(5-nitro-1H-imidazol-2-yl)-1,2,4-oxadiazole hydrochloride]	> 128 µg/mL	> 128 µg/mL	
CC(C)(C)OC(=O)N1CCC(Oc2ccc(-c3noc(-c4ncc([N+](=O)[O-])[nH]4)n3)cc2)CC1 [Compound 133, 3-(4-((1-(tert-Butoxycarbonyl)piperidin-4-yl)oxy)phenyl)-5-(5-nitro-1H-imidazol-2-yl)-1,2,4-oxadiazole]	> 128 µg/mL	> 128 µg/mL	
Cl.O=[N+]([O-])c1c[nH]c(-c2nc(-c3ccc(OC4CCNCC4)cc3)no2)n1 [Compound 134, 5-(4-Nitro-1H-imidazol-2-yl)-3-(4-(piperidin-4-yloxy)phenyl)-1,2,4-oxadiazole hydrochloride]	> 128 µg/mL	> 128 µg/mL	
O=C(NNC(=O)c1ccc(OC2CCCC2)cc1)c1ccc(O)cc1 [Compound 138, 4-(Cyclopentyloxy)-N′-(4-hydroxybenzoyl)benzohydrazide]	> 128 µg/mL	> 128 µg/mL	
Oc1ccc(-c2nnc(-c3ccc(OC4CCCC4)cc3)o2)cc1 [Compound 139, 4-(5-(4-(Cyclopentyloxy)phenyl)-1,3,4-oxadiazol-2-yl)phenol]	> 128 µg/mL		MIC (μg/mL) 48 h [3]: >128 µg/mL

Continued, in another order:

MIC [1]	MIC [2]	Compound	further results
> 128 µg/mL	> 128 µg/mL	FC(F)(F)c1ccc(Oc2ccc(-c3noc(-c4ccncc4)n3)cc2)cc1 [Compound 23, 5-(Pyridin-4-yl)-3-(4-(4-(trifluoromethyl)phenoxy)phenyl)-1,2,4-oxadiazole]	
> 128 µg/mL	> 128 µg/mL	FC(F)(F)c1ccc(Oc2ccc(-c3noc(-c4cn[nH]c4)n3)cc2)cc1 [Compound 33, 5-(1H-Pyrazol-4-yl)-3-(4-(4-(trifluoromethyl)phenoxy)phenyl)-1,2,4-oxadiazole]	
128 µg/mL (≈ 370 µM)	> 128 µg/mL	c1nc2ccc(-c3nc(-c4ccc(OC5CCCC5)cc4)no3)cc2[nH]1 [Compound 55, 5-(1H-Benzo[d]imidazol-6-yl)-3-(4-(cyclopentyloxy)phenyl)-1,2,4-oxadiazole]	MIC (μg/mL) 48 h [3]: 128 µg/mL (≈ 370 µM)
32 µg/mL (≈ 90.1 µM)		Cn1c(-c2nc(-c3ccc(OC4CCCC4)cc3)no2)cnc1[N+](=O)[O-] [Compound 59, 3-(4-(Cyclopentyloxy)phenyl)-5-(1-methyl-2-nitro-1H-imidazol-5-yl)-1,2,4-oxadiazole]	
8 µg/mL (≈ 23.8 µM)	16 µg/mL (≈ 47.6 µM)	Oc1ccc(Cc2nc(-c3ccc(OC4CCCC4)cc3)no2)cc1 [Compound 63, 3-(4-(Cyclopentyloxy)phenyl)-5-(4-hydroxybenzyl)-1,2,4-oxadiazole]	
16 µg/mL (≈ 47.4 µM)	32 µg/mL (≈ 94.8 µM)	Oc1ccc(Nc2nc(-c3ccc(OC4CCCC4)cc3)no2)cc1 [Compound 64, 4-((3-(4-(Cyclopentyloxy)phenyl)-1,2,4-oxadiazol-5-yl)amino)phenol]	
32 µg/mL (≈ 91.8 µM)	64 µg/mL (≈ 184 µM)	Oc1ccc(/C=C/c2nc(-c3ccc(OC4CCCC4)cc3)no2)cc1 [Compound 66, 3-(4-(Cyclopentyloxy)phenyl)-(E)-5-(4-hydroxystyryl)-1,2,4-oxadiazole]	
64 µg/mL (≈ 260 µM)	64 µg/mL (≈ 260 µM)	O=c1[nH]c(-c2ccc(OC3CCCC3)cc2)no1 [Compound 69, 3-(4-(Cyclopentyloxy)phenyl)-1,2,4-oxadiazol-5 (4H)-one]	
16 µg/mL (≈ 54.7 µM)	128 µg/mL (≈ 438 µM)	C#CCOc1ccc(-c2noc(-c3ccc(O)cc3)n2)cc1 [Compound 88, 4-(3-(4-(Prop-2-yn-1-yloxy)phenyl)-1,2,4-oxadiazol-5-yl)phenol]	
64 µg/mL (≈ 205 µM)	> 128 µg/mL	COC(OC)c1ccc(-c2noc(-c3ccc(O)cc3)n2)cc1 [Compound 106, 4-(3-(4-(Dimethoxymethyl)phenyl)-1,2,4-oxadiazol-5-yl)phenol]	
64 µg/mL (≈ 240 µM)	> 128 µg/mL	O=Cc1ccc(-c2noc(-c3ccc(O)cc3)n2)cc1 [Compound 107, 4-(5-(4-Hydroxyphenyl)-1,2,4-oxadiazol-3-yl)benzaldehyde]	
32 µg/mL (≈ 95.2 µM)	32 µg/mL (≈ 95.2 µM)	Oc1ccc(-c2nc(-c3ccc(C(O)C(F)(F)F)cc3)no2)cc1 (stereo not shown) [Compound 108, 4-(3-(4-(2,2,2-Trifluoro-1-hydroxyethyl)phenyl)-1,2,4-oxadiazol-5-yl)phenol]	
8 µg/mL (≈ 23.9 µM)	8 µg/mL (≈ 23.9 µM)	O=C(c1ccc(-c2noc(-c3ccc(O)cc3)n2)cc1)C(F)(F)F [Compound 109, 5-(4-Hydroxyphenyl)-3-(4-(2,2,2-trifluoroacetyl)phenyl)-1,2,4-oxadiazole]	

From US20260125371A1, “METHOD FOR INHIBITING CLOSTRIDIOIDES DIFFICILE SPORE GERMINATION” (UNIVERSITY OF NOTRE DAME DU LAC, priority 2022, published 2026)
